Results published in patent US10556865B2, “Synergistic herbicidal composition containing certain pyridine or pyrimidine carboxylic acids and certain cereal and rice herbicides” (Dow AgroSciences, LLC, priority 2007, dated 2020).

Key:
Format in all cases: in vivo
[1] = tested on: blackgrass (Alopecurus myosuroides L; ALOMY); test: Postemergence herbicidal activity of mixtures in cereal crops (greenhouse, visual injury 0-100 percent after 20-22 days)
Outline: (§1)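 Plants at second-third true leaf stage sprayed postemergence at 187 L/ha with compound and second cereal herbicide alone and combined; solvent blank controls. Visual injury scored 0-100% versus controls after 20-22 days; expected mixture effects by Colby's equation.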

[2] = tested on: annual ryegrass (Lolium multiflorum L; LOLMG); test: Postemergence herbicidal activity of mixtures in cereal crops (greenhouse, visual injury)
Outline: as §1

[3] = tested on: wild oats (Avena fatua L; AVEFA); test: as above
Outline: as §1

In the case of `COC(=O)c1nc(-c2ccc(Cl)c(OC)c2F)cc(N)c1Cl` [Compound A Methyl, 4-amino-3-chloro-6-(4-chloro-2-fluoro-3-methoxyphenyl)pyridine-2-carboxylic acid methyl ester], the “ALOMY Ob” value ([1]; 17.5 g/ha, Table 1) is reported as 0%, the “ALOMY Ob” value ([1]; 17.5 g/ha, Table 2) is reported as 0% and the “ALOMY Ob” value ([1]; 17.5 g/ha, Table 4) is reported as 0%. The “ALOMY Ob” value ([1]; 17.5 g/ha, Table 5) was 0%, the “ALOMY Ob” value ([1]; 17.5 g/ha, Table 6) was 0% and the “ALOMY Ob” value ([1]; 35 g/ha, Table 1) was 20%. The “ALOMY Ob” value ([1]; 35 g/ha, Table 2) was 20%, the “ALOMY Ob” value ([1]; 35 g/ha, Table 3) was 30% and the “ALOMY Ob” value ([1]; 35 g/ha, Table 4) was 30%. The “ALOMY Ob” value ([1]; 35 g/ha, Table 5) was 30%, the “ALOMY Ob” value ([1]; 35 g/ha, Table 6) was 30% and the “ALOMY Ob” value ([1]; 35 g/ha, Table 7) was 3%. For the same molecule, the “ALOMY Ob” value ([1]; 70 g/ha, Table 1) was 50%, the “ALOMY Ob” value ([1]; 70 g/ha, Table 2) was 50% and the “ALOMY Ob” value ([1]; 70 g/ha, Table 3) was 30%. For the same molecule, the “ALOMY Ob” value ([1]; 70 g/ha, Table 4) was 30%, the “ALOMY Ob” value ([1]; 70 g/ha, Table 5) was 30% and the “ALOMY Ob” value ([1]; 70 g/ha, Table 6) was 30%. For the same molecule, the “ALOMY Ob” value ([1]; 70 g/ha, Table 7) was 20%, the “ALOMY Ob” value ([1]; 140 g/ha, Table 7) was 47% and the “LOLMG Ob” value ([2]; 17.5 g/ha, Table 1) was 20%. For the same molecule, the “LOLMG Ob” value ([2]; 17.5 g/ha, Table 2) was 20%, the “LOLMG Ob” value ([2]; 35 g/ha, Table 1) was 40% and the “LOLMG Ob” value ([2]; 35 g/ha, Table 2) was 40%. For the same molecule, the “LOLMG Ob” value ([2]; 70 g/ha, Table 1) was 0%, the “LOLMG Ob” value ([2]; 70 g/ha, Table 2) was 60% and the “AVEFA Ob” value ([3]; 17.5 g/ha, Table 1) was 30%. For the same molecule, the “AVEFA Ob” value ([3]; 17.5 g/ha, Table 4) was 0%, the “AVEFA Ob” value ([3]; 17.5 g/ha, Table 5) was 0% and the “AVEFA Ob” value ([3]; 35 g/ha, Table 1) was 30%. The “AVEFA Ob” value ([3]; 35 g/ha, Table 3) was 40%, the “AVEFA Ob” value ([3]; 35 g/ha, Table 4) was 40% and the “AVEFA Ob” value ([3]; 35 g/ha, Table 5) was 40%. The “AVEFA Ob” value ([3]; 70 g/ha, Table 1) was 35%, the “AVEFA Ob” value ([3]; 70 g/ha, Table 3) was 45% and the “AVEFA Ob” value ([3]; 70 g/ha, Table 4) was 45%. For the same molecule, the “AVEFA Ob” value ([3]; 70 g/ha, Table 5) was 45%.

`COc1c(Cl)ccc(-c2cc(N)c(Cl)c(C(=O)O)n2)c1F` [Compound A TEA, 4-amino-3-chloro-6-(4-chloro-2-fluoro-3-methoxyphenyl)pyridine-2-carboxylic acid] was tested, and the “ALOMY Ob” value ([1]; 35 g/ha, Table 14) was 0%, the “ALOMY Ob” value ([1]; 35 g/ha, Table 16) was 0% and the “ALOMY Ob” value ([1]; 35 g/ha, Table 18) was 0%. The “ALOMY Ob” value ([1]; 35 g/ha, Table 19) was 0%, the “ALOMY Ob” value ([1]; 70 g/ha, Table 14) was 0% and the “ALOMY Ob” value ([1]; 70 g/ha, Table 16) was 0%. The “ALOMY Ob” value ([1]; 70 g/ha, Table 18) was 0%, the “ALOMY Ob” value ([1]; 70 g/ha, Table 19) was 0% and the “ALOMY Ob” value ([1]; 140 g/ha, Table 14) was 3%. The “ALOMY Ob” value ([1]; 140 g/ha, Table 16) was 0%, the “ALOMY Ob” value ([1]; 140 g/ha, Table 18) was 3% and the “ALOMY Ob” value ([1]; 140 g/ha, Table 19) was 0%. For the same molecule, the “LOLMG Ob” value ([2]; 35 g/ha, Table 13) was 0%, the “LOLMG Ob” value ([2]; 70 g/ha, Table 13) was 0% and the “LOLMG Ob” value ([2]; 140 g/ha, Table 13) was 0%. For the same molecule, the “AVEFA Ob” value ([3]; 35 g/ha, Table 14) was 0%, the “AVEFA Ob” value ([3]; 35 g/ha, Table 17) was 0% and the “AVEFA Ob” value ([3]; 35 g/ha, Table 18) was 0%. For the same molecule, the “AVEFA Ob” value ([3]; 70 g/ha, Table 14) was 0%, the “AVEFA Ob” value ([3]; 70 g/ha, Table 17) was 3% and the “AVEFA Ob” value ([3]; 70 g/ha, Table 18) was 0%. For the same molecule, the “AVEFA Ob” value ([3]; 140 g/ha, Table 14) was 0%, the “AVEFA Ob” value ([3]; 140 g/ha, Table 17) was 8% and the “AVEFA Ob” value ([3]; 140 g/ha, Table 18) was 0%.

`COC(=O)c1nc(-c2ccc(Cl)c(OC)c2F)nc(N)c1Cl` [Compound B Methyl, 6-amino-5-chloro-2-(4-chloro-2-fluoro-3-methoxyphenyl)pyrimidine-4-carboxylic acid methyl ester] was tested, and the “ALOMY Ob” value ([1]; 8.75 g/ha) was 0%, the “ALOMY Ob” value ([1]; 8.75 g/ha, Table 20) was 0% and the “ALOMY Ob” value ([1]; 8.75 g/ha, Table 22) was 0%. The “ALOMY Ob” value ([1]; 17.5 g/ha) was 10%, the “ALOMY Ob” value ([1]; 17.5 g/ha, Table 20) was 10% and the “ALOMY Ob” value ([1]; 17.5 g/ha, Table 22) was 10%. The “ALOMY Ob” value ([1]; 35 g/ha) was 20%, the “ALOMY Ob” value ([1]; 35 g/ha, Table 20) was 20% and the “ALOMY Ob” value ([1]; 35 g/ha, Table 22) was 20%. For the same molecule, the “ALOMY Ob” value ([1]; 70 g/ha) was 40%, the “ALOMY Ob” value ([1]; 70 g/ha, Table 20) was 40% and the “ALOMY Ob” value ([1]; 70 g/ha, Table 22) was 40%. The “LOLMG Ob” value ([2]; 8.75 g/ha) was 0%, the “LOLMG Ob” value ([2]; 8.75 g/ha, Table 22) was 0% and the “LOLMG Ob” value ([2]; 17.5 g/ha) was 0%. For the same molecule, the “LOLMG Ob” value ([2]; 17.5 g/ha, Table 22) was 0%, the “LOLMG Ob” value ([2]; 35 g/ha) was 0% and the “LOLMG Ob” value ([2]; 35 g/ha, Table 22) was 0%. The “LOLMG Ob” value ([2]; 70 g/ha) was 0%, the “LOLMG Ob” value ([2]; 70 g/ha, Table 22) was 0% and the “AVEFA Ob” value ([3]; 8.75 g/ha) was 0%. For the same molecule, the “AVEFA Ob” value ([3]; 8.75 g/ha, Table 20) was 0%, the “AVEFA Ob” value ([3]; 17.5 g/ha) was 0% and the “AVEFA Ob” value ([3]; 17.5 g/ha, Table 20) was 0%. For the same molecule, the “AVEFA Ob” value ([3]; 35 g/ha) was 0%, the “AVEFA Ob” value ([3]; 35 g/ha, Table 20) was 0% and the “AVEFA Ob” value ([3]; 70 g/ha) was 0%. For the same molecule, the “AVEFA Ob” value ([3]; 70 g/ha, Table 20) was 0%.
